Laboratory results reported in patent publication US20240165272A1, “Liver-targeted fluorescence/photoacoustic dual-modal probe for early detecting drug-induced hepatic inflammation and autoimmune hepatitis” (BEIJING UNIVERSITY OF TECHNOLOGY, priority 2022, published 2024).

How the values were obtained:
[1] = Photoacoustic response of hCy-Tf-CA to O2·^−; conditions: probe 10 μM, O2·^− 100 μM, 10 min
Method: (§1) 10 μL of probe stock solution (1 mM) was added to 1 mL of ethanol-phosphate buffer solution (ethanol/PBS=1/1, v/v, pH=7.4). To characterize the responsiveness of hCy-Tf-CA, 40 μL O2·^− stock solution (2.5 mM) was added to above solution.
The reaction system was prepared under the same experimental conditions. […] The photoacoustic signal of hCy-Tf-CA only at 710 nm is very weak (FIG. 3).
Under the same experimental conditions, 10 μL of probe stock solution (1 mM) was added to 1 mL of ethanol-phosphate buffer solution, the O2·^− titration experiment then was carried out and the photoacoustic intensity at 710 nm were tested 10 minutes later.

[2] = system: mouse model of drug-induced hepatic inflammation; assay: Fluorescence/photoacoustic dual-modal imaging of drug-induced (APAP) hepatic inflammation; assay type: in vivo, Balb/c female mice
Method: In order to visually detect hepatic O2·^− concentration and drug-induced hepatic inflammation by fluorescence/photoacoustic dual-modal imaging, Balb/c female mice were intraperitoneally injected with overdose of APAP (300 mg/Kg) to cause drug-induced hepatic inflammation, and PBS injected mice served as the control group. The probe hCy-Tf-CA (50 μM, 100 μL) were administrated intravenously for in vivo fluorescence/photoacoustic dual-modal imaging. Images at predetermined time points were recorded on IVIS imaging system (Perkin Elmer, λex=675 nm, λem=760 nm) and InVision 256-TF imaging system (iThera Medical, λex=710 nm).

[3] = Selective response: fluorescence against potential interferents; conditions: probe 10 μM
Method: The specificity of hCy-Tf-CA was determined against various potential interferents (Na^+, K^+, Ca^2+, Mg^2+, Zn^2+, Cu^2+, HS^−, HClO, H2O2, ·OH, ONOO^−, glucose, glutathione, cysteine, vitamin C, nitroreductase, alkaline phosphatase, β-galactosidase and leucine aminopeptidase). Under the same experimental conditions, 10 μL of probe stock solution (1 mM) was added to 1 mL of ethanol-phosphate buffer solution. Then stock solutions of various potential interferents were respectively added to above solution, then the fluorescence intensity at 730 nm was tested. […] Therefore, these potential interferents barely effect on the selective response to O2·^−, implying that the probe hCy-Tf-CA prepared by the invention has good selectivity.

[4] = system: mouse model of autoimmune hepatitis; assay: Fluorescence/photoacoustic dual-modal imaging of autoimmune hepatitis (Con A); assay type: in vivo, Balb/c female mice
Method: In order to visually detect autoimmune hepatitis by fluorescence/photoacoustic dual-modal imaging, Balb/c female mice were intravenously injected with a single dose Con A (20 mg/Kg, dissolved in 100 μL PBS) for 2 h to induce early autoimmune hepatitis, and the remaining mice were treated with PBS solution as controls. hCy-Tf-CA was then intravenously injected into mice for in vivo imaging, and representative NIRF/PA dual-modal images of different treated mice were recorded at chosen times. Images at predetermined time points were recorded on IVIS imaging system (Perkin Elmer, λex=675 nm, λem=760 nm) and InVision 256-TF imaging system (iThera Medical, λex=710 nm).

[5] = system: HepG2 cells; assay: Fluorescence imaging of endogenous O2·^− in HepG2 cells; assay type: cell-based
Method: To evaluate the capacity of hCy-Tf-CA to image O2·^− fluctuation in living cells, HepG2 cells were plated in a glass-bottom dish for 24 h to 80% density before the experiment. Cell fluorescence imaging of hCy-Tf-CA was divided into five groups. In the first group, hCy-Tf-CA (10 μM) was incubated with cells for 30 min. In the second group, cells were pretreated with lipopolysaccharide (LPS, 1 μg/mL) and interferon-gamma (IFN-γ, 50 ng/mL) for 12 h, then washed twice with PBS buffer before incubating with hCy-Tf-CA (10 μM) for 30 min. In the third group, cells were pretreated with LPS (1 μg/mL), IFN-γ (50 ng/mL) and 2,2,6,6-tetramethylpiperidine-N-oxyl (TEMPO, 300 μM) for 12 h, then washed twice with PBS buffer before incubating with hCy-Tf-CA (10 μM) for 30 min. In the fourth and fifth groups, cells were pretreated with H2O2 or Na2SO3 (100 μM) for 30 min, then washed twice with PBS buffer before incubating with hCy-Tf-CA (10 μM) for 30 min. The cells were washed 3 times with PBS buffer before cell imaging. Fluorescence images of the cells were captured by a Nikon AX R microscope with DAPI channel (λex'404 nm, λem=425-475 nm) and Cy5.5 channel (λex=639 nm, λem=663-738).

[6] = Fluorescence response of hCy-Tf-CA to O2·^− in ethanol-phosphate buffer
Method: as §1
The reaction system was prepared under the same experimental conditions. […] That is due to the nucleophilic O2·^− cleavage of trifluoromethonium sulfonate, which restored the strong electron-donating phenol and it-conjugation on the fluorophore. […] The probe hCy-Tf-CA is an enhanced fluorescence probe.
Under the same experimental conditions, 10 μL of probe stock solution (1 mM) was added to 1 mL of ethanol-phosphate buffer solution, the O2·^− titration experiment was then carried out. The fluorescence intensity at 730 nm were tested 10 minutes later. […] (FIGS. 4 and 5).

[7] = system: HepG2 cells; assay: Biocompatibility study, CCK-8 assay; assay type: cell-based; conditions: 24 h exposure to 10 μM
Method: Inspired by the excellent responsiveness of the probe hCy-Tf-CA to O2·^−, its biocompatibility and potential for further applications in living cells were assessed. HepG2 cells were plated in a 96-well plates at […] and incubated overnight in the cell incubator. Then the cells were washed with culture medium and incubated with various concentrations of hCy-Tf-CA (1, 2, 4, 8, 10 μM) at 37° C. for 24 h. After removing the above solution, CCK-8 reagent diluted with culture medium was added to each well and incubated at 37° C. for 60 min. Finally, the absorbance was finally measured at 450 nm by a microplate reader. Cell viability was calculated using the following formula:
Calculation of cell viability: Cell viability (%)=(Aexperimental group−Ablank group)/(Acontrol group−Ablank group)×100%.

C[C@H](CCC(=O)NCCC[N+]1=C(/C=C/C2=C3Oc4cc(OS(=O)(=O)C(F)(F)F)c(Cl)cc4C=C3CCC2)C(C)(C)c2c1ccc1ccccc21)[C@H]1CC[C@H]2[C@@H]3[C@H](O)C[C@@H]4C[C@H](O)CC[C@]4(C)[C@H]3C[C@H](O)[C@]12C [hCy-Tf-CA]
photoacoustic signal enhancement at 710 nm after treatment with O2·^− [1]: 7 fold
ex vivo hepatic fluorescence signal, APAP-treated mice versus health mice ([2]; 2 h after intravenous administration): obviously higher
ex vivo organ distribution of fluorescence signal ([2]; 2 h after intravenous administration, liver versus heart, spleen, lung and kidney): mainly located in the liver
in vivo fluorescence signal intensity, APAP-treated mice versus control mice ([2]; 2 h post-injection, probe 50 μM 100 μL i.v., APAP 300 mg/Kg i.p.): significantly higher
photoacoustic signal in the liver, APAP-treated mice versus healthy mice ([2]; λex=710 nm, cross-sectional images): significantly higher
fluorescence response to O2·^− in the selectivity test ([3]; 730 nm): significant response
fluorescence response at 730 nm to potential interferents ([3]; analytes 100 μM, enzyme 0.1 U·mL^−1): barely respond
in vivo fluorescence signal intensity in the liver region of Con A-treated mice over time ([4]; Con A 20 mg/Kg i.v. for 2 h, probe i.v.): gradually enhanced
rate of increase of hepatic photoacoustic signal, Con A-treated mice versus control mice ([4]; after injection of probe): increased faster
photoacoustic signal in the liver, Con A-treated mice versus healthy mice ([4]; at 2 h, λex=710 nm): obviously higher
location of fluorescence signals (ex vivo) ([4]; both groups (Con A-treated and control)): mainly located in the liver
ex vivo fluorescence signals, Con A-treated mice versus control mice ([4]; mouse, in vivo): apparently brighter
intracellular fluorescence after LPS/IFN-γ in the presence of TEMPO ([5]; HepG2, LPS/IFN-γ plus TEMPO 300 μM for 12 h, probe 10 μM 30 min): largely suppressed
intracellular fluorescence, normal conditions ([5]; HepG2, probe 10 μM, 30 min, no pretreatment): weak fluorescence
fluorescence fluctuations in H2O2-treated or SO3^2−-treated cells ([5]; HepG2 pretreated with H2O2 or Na2SO3 100 μM for 30 min, probe 10 μM 30 min): negligible
intracellular fluorescence intensity after LPS/IFN-γ ([5]; HepG2 pretreated with LPS 1 μg/mL and IFN-γ 50 ng/mL for 12 h, probe 10 μM 30 min): significantly increased
O2·^− concentration at which fluorescence intensity reached a plateau ([6]; probe 10 μM, 10 min, at 740 nm as printed): 100 µM
fluorescence intensity at 730 nm increase compared with probe alone ([6]; probe 10 μM, O2·^− 100 μM, 10 min, λex=680 nm, ethanol/PBS=1/1, pH=7.4): 17 fold
fluorescence intensity increase after reaction with O2·^− ([6]; summary statement): 17 times
cell viability [7]: more than 90%
